Measured values: PubChem BioAssay (NCI)
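Briefly, cells in 96-well plates were exposed to five compound concentrations for 48 h, and endpoints were estimated by linear interpolation. TGI: total growth inhibition.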 Where a SMILES comes first, the peptide text is derived from it. The star is where a group is joined. Boc = CC(C)(C)OC(=O)*; OBn = c1ccc(CO*)cc1

Legend:
Assay in all cases: NCI tumour cell line growth inhibition, 48 h
CCRF-CEM leukemia = tested on: CCRF-CEM leukemia
DU-145 prostate = tested on: DU-145 prostate
HCT-116 colon = tested on: HCT-116 colon
HOP-62 NSCLC = tested on: HOP-62 NSCLC
HT29 colon = tested on: HT29 colon
M14 melanoma = tested on: M14 melanoma
MDA-N = tested on: MDA-N
NCI-H23 lung = tested on: NCI-H23 lung
OVCAR-5 ovarian = tested on: OVCAR-5 ovarian
SR leukemia = tested on: SR leukemia

SMILES | TGI (CCRF-CEM leukemia) [µM] | TGI (DU-145 prostate) [µM] | TGI (HCT-116 colon) [µM] | TGI (HOP-62 NSCLC) [µM] | TGI (HT29 colon) [µM] | TGI (M14 melanoma) [µM] | TGI (MDA-N) [µM] | TGI (NCI-H23 lung) [µM] | TGI (OVCAR-5 ovarian) [µM] | TGI (SR leukemia) [µM]
O=C1C(Br)=CC2(C=C1Br)CCNC1=C2C(=O)c2cccnc2C1=O | 25.5 | 23.5 | 26.4 | 21.3 | 56.7 | 21.3 | 3.46 | 18.2 | 33.1 | 18.5
CC(C)c1ccc(/C=C2\CSCC3=C2NC(=S)NC3c2ccc(C(C)C)cc2)cc1 (stereo not given) | > 100 | > 100 | > 100 | > 100 | > 100 | > 100 | > 100 | > 100 | > 100 | > 100
Cc1sc(/N=C/c2c[nH]c3ccccc23)c(C#N)c1C | 58.3 | > 100 | > 100 | > 100 | > 100 | > 100 | > 100 | > 100 | > 100 | > 100
CN(NC(=O)CCCl)C1=NCCCCN1 | > 100 | > 100 | > 100 | > 100 | > 100 | > 100 | > 100 | > 100 | > 100 | > 100
OC1(c2cc3ccccc3s2)CCCCC1 | 66.7 | > 100 | > 100 | > 100 | 54.5 | > 100 | > 100 | > 100 | > 100 | > 100
[N-]=[N+]=NCc1cccc(Nc2cc(=O)[nH]c(=O)[nH]2)c1 | > 100 | > 100 | > 100 | > 100 | > 100 | > 100 | > 100 | > 100 | > 100 | > 100
O=C(OCc1ccccc1)C1(N2CN(C3(C(=O)OCc4ccccc4)CCCC3)CN(C3(C(=O)OCc4ccccc4)CCCC3)C2)CCCC1 | > 10 | > 10 | > 10 | > 10 | > 10 | > 10 | > 10 | > 10 | > 10 | > 10
CC(C)(C)C1(COC(=O)c2ccc(N)cc2)COC1 | > 100 | > 100 | > 100 | > 100 | > 100 | > 100 | > 100 | > 100 | > 100 | > 100
NC(=O)c1ccc2c(c1)S(=O)(=O)c1ccccc1C2=O | > 100 | > 100 | > 100 | > 100 | > 100 | > 100 | > 100 | > 100 | > 100 | > 100
CC(NC(=O)C(NC(=O)OC(C)(C)C)C(C)C)C(=O)N1CCCC1C(=O)NCC(=O)NC(C(=O)NCC(=O)OCc1ccccc1)C(C)C (stereo not given) (Boc-VAPGVG-OBn; configuration not given here) | > 100 | > 100 | > 100 | > 100 | > 100 | > 100 | > 100 | > 100 | > 100 | > 100
Cc1nc2ccc(S(=O)(=O)O)cc2c(=O)n1-c1ccc(C(=O)NN2C(=O)C(Cl)C2c2ccccc2O)cc1 (stereo not given) | > 100 | > 100 | > 100 | > 100 | > 100 | > 100 | > 100 | > 100 | > 100 | > 100
COc1cc(CC2c3cc(OC)c(OC)cc3CCN2C)c(Oc2cc3c(cc2OC)-c2c(O)c(OC)cc4c2C(C3)N(C)CC4)cc1OC (stereo not given) | 42.8 | > 100 | > 100 | > 100 | 36.6 | 22.8 | 36.8 | 42.8 | > 100 | 17.5
COC(OC)C1OC(CO)C(n2ccc(N)nc2=O)C1O (stereo not given) | > 100 | > 100 | > 100 | > 100 | > 100 | > 100 | > 100 | > 100 | > 100 | > 100
C=CCSC1=N/C(=C\c2ccccc2)C(=O)N1CC=C | 49.8 | > 100 | > 100 | > 100 | > 66.8 | > 100 | > 100 | > 100 | > 100 | > 61.6
O=c1[nH]nc(-c2ccccc2)n1/N=C/c1c(O)ccc2ccccc12 | > 100 | > 100 | > 100 | > 100 | > 100 | > 100 | > 100 | > 100 | > 100 | > 100
O=C1COc2ccc([N+](=O)[O-])cc2C(=O)C1 | > 10 | > 10 | > 10 | > 10 | > 10 | > 10 | > 10 | > 10 | > 10 | > 10

SMILES | TGI (CCRF-CEM leukemia) [µM] | TGI (DU-145 prostate) [µM] | TGI (HCT-116 colon) [µM] | TGI (HOP-62 NSCLC) [µM] | TGI (HT29 colon) [µM] | TGI (M14 melanoma) [µM] | TGI (MDA-N) [µM] | TGI (NCI-H23 lung) [µM] | TGI (OVCAR-5 ovarian) [µM] | TGI (SR leukemia) [µM]
O=S1(=O)c2ccccc2C(=NO)c2ccccc21 | > 100 | > 100 | > 100 | > 100 | > 100 | > 100 | > 100 | > 100 | > 100 | > 100
NC(=S)Nc1[nH]c(=S)nc2c1SC1=N/C(=C\c3ccco3)C(=O)N12 | > 85.4 | > 100 | > 100 | > 100 | > 100 | > 100 | > 100 | > 100 | > 100 | > 70.7
COC(=O)/C=C(/C(=O)OC)c1c(C)c(C)c2c(C)cc(C)cc(C)c1-2 | > 100 | > 100 | > 100 | 81 | 34.3 | 37.3 | 4.83 | > 100 | > 100 | > 100
CCCCCCCCCCCCCCCCCCNc1ccn(C2OC(COP(=O)(O)OCC3OC(n4cc(C)c(=O)[nH]c4=O)CC3N=[N+]=[N-])C(O)C2O)c(=O)n1 (stereo not given) | 48.7 | > 100 | > 100 | 45 | 35.1 | 36.1 | > 100 | 36 | 34.2 | 80
O=C(CCCCCCCCC(=O)N1C(=O)CC(=O)N(c2cccc(Cl)c2)C1=S)N1C(=O)CC(=O)N(c2cccc(Cl)c2)C1=S | > 100 | > 100 | > 100 | > 100 | > 100 | > 100 | > 100 | > 100 | > 100 | 67.8
COc1ccc(-c2c(N)n(-c3cccc(C(=O)O)c3)c(=O)c3cc([N+](=O)[O-])ccc23)cc1 | > 100 | > 100 | > 100 | > 100 | > 100 | > 100 | > 100 | > 100 | > 100 | > 100
CN(C)CCNC(=O)c1cccc2nc3c(nc12)-c1ccccc1C3=O | 17.4 | 70 | 88.3 | 16.6 | 22.8 | 31.9 | 25.7 | 35.4 | 90.1 | > 21.5
O=C1c2c(nc3ccccc3c2-c2ccccc2)CN1Nc1ccccn1 | > 100 | > 100 | > 100 | > 100 | > 100 | > 100 | > 100 | > 100 | > 100 | > 100
Cc1cc(-c2nc3ccccc3s2)ccc1NC(=O)[C@H](C)N | 24.1 | 29 | 23.4 | 28.3 | 28.7 | 19.2 | 24.1 | 33.9 | 19.1 | 13.4
CCOC(=O)/C=C(/C(=O)OCC)n1cc(C)c(=O)n(Cc2cn(COCCOC(C)=O)nn2)c1=O | 5.33 | > 90.2 | > 53.3 | > 100 | 30.7 | > 100 | > 85.4 | 26.3 | 65 | > 94.9
O=C1Cc2c([nH]c3ccc(Br)cc23)-c2ccccc2N1 | > 100 | > 100 | […] | > 100 | > 100 | > 100 | > 100 | > 100 | > 100 | > 100
Cc1cn(CC2=NCC(C)(C)N2)c(=O)[nH]c1=O | > 100 | > 100 | > 100 | > 100 | > 100 | > 100 | > 100 | > 100 | > 100 | > 100
O=[N+]([O-])c1ccc(N=Nc2c(O)c(S(=O)(=O)O)cc3cc(S(=O)(=O)O)ccc23)cc1 | > 100 | > 100 | > 100 | > 100 | > 100 | > 100 | > 100 | > 100 | > 100 | > 100
CNC(=O)c1cc(NC(=O)N(CCC#N)CCN(C(=O)N[C@@H](Cc2ccccc2)C(=O)N[C@@H](CC(C)C)C(=O)NC)c2ccccc2)ccc1OC | > 100 | > 100 | > 100 | > 100 | > 100 | > 100 | > 100 | > 100 | > 100 | 68.9
CCc1ccc2[nH]c(O)c(-c3[nH]c4ccccc4c3N=O)c2c1 | > 100 | 22.5 | 10 | 27.2 | 25.5 | 25.3 | 20.5 | 19 | 58.2 | > 100
